Results reported in patent US10941152B2, “Pyrazole compounds as modulators of FSHR and uses thereof” (TOCOPHERX, INC., priority 2014, dated 2021).

What was measured:
FSHR = target: T1, FSHR (Homo sapiens, UniProt P23945); test: EC50 of cyclic AMP production in CHO FSHR cells + EC20 FSH (Assay A); format: cell-based; conditions: cyclic AMP production in CHO FSHR cells + EC20 FSH (0.265 pM), HTRF
T1 construct: expressed in transfected cells; host or cells: CHO (Cho-FSHR-LUC-1-1-43)
T1 sequence (P23945 18-695): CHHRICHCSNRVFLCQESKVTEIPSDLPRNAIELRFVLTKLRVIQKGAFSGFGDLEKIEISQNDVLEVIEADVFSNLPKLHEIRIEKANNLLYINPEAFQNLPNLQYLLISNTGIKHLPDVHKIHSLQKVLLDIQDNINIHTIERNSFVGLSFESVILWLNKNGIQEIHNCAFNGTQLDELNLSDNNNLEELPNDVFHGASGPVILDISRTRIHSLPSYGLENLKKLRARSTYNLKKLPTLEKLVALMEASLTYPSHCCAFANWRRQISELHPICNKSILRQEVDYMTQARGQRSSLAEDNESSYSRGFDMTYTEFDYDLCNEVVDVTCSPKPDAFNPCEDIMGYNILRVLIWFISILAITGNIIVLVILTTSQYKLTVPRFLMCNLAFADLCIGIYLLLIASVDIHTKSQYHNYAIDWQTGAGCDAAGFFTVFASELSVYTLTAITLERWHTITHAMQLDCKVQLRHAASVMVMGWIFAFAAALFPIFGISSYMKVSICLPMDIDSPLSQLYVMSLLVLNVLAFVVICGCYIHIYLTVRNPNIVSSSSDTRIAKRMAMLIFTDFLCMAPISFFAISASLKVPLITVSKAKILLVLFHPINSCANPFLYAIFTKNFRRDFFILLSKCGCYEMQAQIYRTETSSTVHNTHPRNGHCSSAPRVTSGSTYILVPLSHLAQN
How it was run: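 cAMP was detected by HTRF as the 665/620 nm ratio. The CHO-FSHR cells had first been exposed for 1 h at 37° C to test compound together with 0.265 pM FSH (EC20) and 200 μM IBMX. Responses are given as percent of the FSH standard maximum.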

[1] = target: T2, follicle-stimulating hormone (FSH) receptor (Rattus norvegicus, UniProt P20395); test: Rat granulosa EC50 FSH (Assay B); format: cell-based
T2 construct: endogenous in cells; host or cells: rat granulosa cells
T2 sequence (P20395 18-692): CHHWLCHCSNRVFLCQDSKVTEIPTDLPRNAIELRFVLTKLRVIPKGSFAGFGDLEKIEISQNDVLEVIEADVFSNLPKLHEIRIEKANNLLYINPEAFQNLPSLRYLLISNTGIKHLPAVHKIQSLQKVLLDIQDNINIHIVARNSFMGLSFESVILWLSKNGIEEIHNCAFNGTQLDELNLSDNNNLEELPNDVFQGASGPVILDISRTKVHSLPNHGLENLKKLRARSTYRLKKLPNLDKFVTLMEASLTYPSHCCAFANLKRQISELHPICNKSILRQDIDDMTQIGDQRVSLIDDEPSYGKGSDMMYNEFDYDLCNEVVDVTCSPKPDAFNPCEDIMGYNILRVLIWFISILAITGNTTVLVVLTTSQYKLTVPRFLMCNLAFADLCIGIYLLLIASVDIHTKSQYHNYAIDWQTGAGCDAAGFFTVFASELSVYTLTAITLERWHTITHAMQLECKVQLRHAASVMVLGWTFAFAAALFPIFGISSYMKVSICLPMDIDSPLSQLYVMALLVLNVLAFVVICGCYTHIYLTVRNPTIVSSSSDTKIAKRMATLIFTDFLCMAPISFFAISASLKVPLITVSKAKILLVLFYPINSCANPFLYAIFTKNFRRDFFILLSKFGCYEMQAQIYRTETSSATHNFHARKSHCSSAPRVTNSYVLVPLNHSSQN
Method: Example 25. Rat granulosa EC50 FSH (Assay B)
The assay was performed pursuant to the teaching of Yanofsky et al. (2006) Allosteric activation of the follicle-stimulating hormone (FSH) receptor by selective, nonpeptide agonists (JBC 281(19): 13226-13233, which is incorporated by reference in the disclosure of the invention).

Row | EC50 (FSHR) | EC50 [1] | SMILES
1 | 10 to 100 nM | 101 to 500 nM | COc1cc2c(cc1-c1cnn(CC(=O)O)c1)-c1c(c(C(=O)N3CCOCC3(C)C)nn1-c1cc(F)cc(Cl)c1)CO2 [Compound 84, 2-(4-(1-(3-chloro-5-fluorophenyl)-3-(3,3-dimethylmorpholine-4-carbonyl)-7-methoxy-1,4-dihydrochromeno[4,3-c]pyrazol-8-yl)-1H-pyrazol-1-yl)acetic acid]
2 | < 10 nM | < 10 nM | COc1cc2c(cc1-c1cncc(NC(C)=O)c1)-c1c(c(C(=O)N(C)C(C)(C)C)nn1-c1cc(Cl)cc(Cl)c1)CO2 [Compound 182, 8-(5-acetamidopyridin-3-yl)-N-tert-butyl-1-(3,5-dichlorophenyl)-7-methoxy-N-methyl-1,4-dihydrochromeno[4,3-c]pyrazole-3-carboxamide]
3 | < 10 nM | 101 to 500 nM | COc1cc2c(cc1-c1cncc(C(N)=O)c1)-c1c(c(C(=O)N3CCC(O)CC3(C)C)nn1-c1cc(F)cc(F)c1)CO2 (stereo not shown) [Compound 162]
4 | 10 to 100 nM | > 500 nM | CCOC(=O)[C@@H]1C[C@@H]1c1cc2c(cc1OC)OCc1c(C(=O)N(C)C(C)(C)C)nn(-c3cc(Cl)cc(Cl)c3)c1-2 (racemic) [Compound 197, (1RS,2SR)-ethyl 2-(3-(tert-butyl(methyl)carbamoyl)-1-(3,5-dichlorophenyl)-7-methoxy-1,4-dihydrochromeno[4,3-c]pyrazol-8-yl)cyclopropanecarboxylate]
5 | < 10 nM | < 10 nM | COc1cc(Cl)cc(-n2nc(C(=O)N3CCOCC3(C)C)c3c2-c2cc(-c4cncc(C(N)=O)c4)c(OC)cc2OC3)c1 [Compound 157]
6 | < 10 nM | 10 to 100 nM | COc1cc2c(cc1-c1c(C)nn(CC(=O)N(C)C)c1C)-c1c(c(C(=O)N(C)C(C)(C)C)nn1-c1cc(Cl)cc(Cl)c1)CO2 [Compound 136, N-tert-butyl-1-(3,5-dichlorophenyl)-8-(1-(2-(dimethylamino)-2-oxoethyl)-3,5-dimethyl-1H-pyrazol-4-yl)-7-methoxy-N-methyl-1,4-dihydrochromeno[4,3-c]pyrazole-3-carboxamide]
7 | 10 to 100 nM | 101 to 500 nM | COc1cc2c(cc1-c1cnn(CC(O)CO)c1)-c1c(c(C(=O)N(C)C(C)(C)C)nn1-c1cc(Cl)cc(Cl)c1)CO2 (single isomer, unassigned) [Compound 191, N-tert-butyl-1-(3,5-dichlorophenyl)-8-(1-(2,3-dihydroxypropyl)-1H-pyrazol-4-yl)-7-methoxy-N-methyl-1,4-dihydrochromeno[4,3-c]pyrazole-3-carboxamide]
8 | < 10 nM | 10 to 100 nM | COc1cc2c(cc1-c1cncc(C(=O)N(C)C)c1)-c1c(c(C(=O)N3CCOCC3(C)C)nn1-c1cc(Cl)cc(Cl)c1)CO2 [Compound 101, 5-(1-(3,5-dichlorophenyl)-3-(3,3-dimethylmorpholine-4-carbonyl)-7-methoxy-1,4-dihydrochromeno[4,3-c]pyrazol-8-yl)-N,N-dimethylnicotinamide]
9 | < 10 nM | 10 to 100 nM | COc1cc2c(cc1-c1cncc(C(N)=O)c1)-c1c(c(C(=O)N(C)C(C)(C)C)nn1-c1cc(C)cc(F)c1)CO2 [Compound 173]
10 | < 10 nM | 10 to 100 nM | COc1cc2c(cc1-c1cncc(C(N)=O)c1C)-c1c(c(C(=O)N(C)C(C)(C)C#N)nn1-c1cc(Cl)cc(Cl)c1)CO2 [Compound 118, 8-(5-carbamoyl-4-methylpyridin-3-yl)-N-(2-cyanopropan-2-yl)-1-(3,5-dichlorophenyl)-7-methoxy-N-methyl-1,4-dihydrochromeno[4,3-c]pyrazole-3-carboxamide]

Second part, the compound before the results:

Row | SMILES | EC50 (FSHR) | EC50 [1]
11 | COc1cc2c(cc1-c1ccn(C)n1)-c1c(c(C(=O)N(C)C(C)(C)C)nn1-c1cc(F)cc(Cl)c1)CO2 [Compound 27, N-tert-butyl-1-(3-chloro-5-fluorophenyl)-7-methoxy-N-methyl-8-(1-methyl-1H-pyrazol-3-yl)-1,4-dihydrochromeno[4,3-c]pyrazole-3-carboxamide] | 10 to 100 nM | > 500 nM
12 | COc1cc2c(cc1-c1cccnc1F)-c1c(c(C(=O)N(C)C(C)(C)C)nn1-c1ccsc1)CO2 [Compound 55, N-tert-butyl-8-(2-fluoropyridin-3-yl)-7-methoxy-N-methyl-1-(thiophen-3-yl)-1,4-dihydrochromeno[4,3-c]pyrazole-3-carboxamide] | < 10 nM | 10 to 100 nM
13 | COc1cc2c(cc1-c1cnn(CC(N)=O)c1)-c1c(c(C(=O)N(C)C(C)(C)C)nn1-c1cc(Cl)cc(Cl)c1)CO2 [Compound 67, 8-(1-(2-amino-2-oxoethyl)-1H-pyrazol-4-yl)-N-tert-butyl-1-(3,5-dichlorophenyl)-7-methoxy-N-methyl-1,4-dihydrochromeno[4,3-c]pyrazole-3-carboxamide] | < 10 nM | 101 to 500 nM
14 | COc1cc2c(cc1-c1ccn(C)n1)-c1c(c(C(=O)N(C)C(C)(C)C)nn1-c1cc(Cl)cc(C(F)(F)F)c1)CO2 [Compound 64, N-tert-butyl-1-(3-chloro-5-(trifluoromethyl)phenyl)-7-methoxy-N-methyl-8-(1-methyl-1H-pyrazol-3-yl)-1,4-dihydrochromeno[4,3-c]pyrazole-3-carboxamide] | 10 to 100 nM | 101 to 500 nM
15 | COc1cc2c(cc1-c1cccc(O)c1)-c1c(c(C(=O)N(C)C(C)(C)C)nn1-c1cc(Cl)cc(Cl)c1)CO2 [Compound 22, N-tert-butyl-1-(3,5-dichlorophenyl)-8-(3-hydroxyphenyl)-7-methoxy-N-methyl-1,4-dihydrochromeno[4,3-c]pyrazole-3-carboxamide] | < 10 nM | 10 to 100 nM
16 | COc1cc2c(cc1-c1ccn(C)n1)-c1c(c(C(=O)N3CCC(O)CC3(C)C)nn1-c1cc(Cl)cc(Cl)c1)CO2 (stereo not shown) [Compound 7, (1-(3,5-dichlorophenyl)-7-methoxy-8-(1-methyl-1H-pyrazol-3-yl)-1,4-dihydrochromeno[4,3-c]pyrazol-3-yl)(4-hydroxy-2,2-dimethylpiperidin-1-yl)methanone] | 10 to 100 nM | 101 to 500 nM
17 | COc1cc(OC)cc(-n2nc(C(=O)N3CC[S+]([O-])CC3(C)C)c3c2-c2cc(-c4ccn(C)n4)c(OC)cc2OC3)c1 (stereo not shown) [Compound 39, (1-(3,5-dimethoxyphenyl)-7-methoxy-8-(1-methyl-1H-pyrazol-3-yl)-1,4-dihydrochromeno[4,3-c]pyrazol-3-yl)-(S-oxo-3,3-dimethylthiomorpholino)methanone] | 10 to 100 nM | 101 to 500 nM
18 | COc1cc2c(cc1-c1cc(C(=O)O)ccc1F)-c1c(c(C(=O)N(C)C(C)(C)C)nn1-c1cc(Cl)cc(Cl)c1)CO2 [Compound 82, 3-(3-(tert-butyl(methyl)carbamoyl)-1-(3,5-dichlorophenyl)-7-methoxy-1,4-dihydrochromeno[4,3-c]pyrazol-8-yl)-4-fluorobenzoic acid] | < 10 nM | > 500 nM
19 | COc1cc2c(cc1-c1ccn(C)n1)-c1c(c(C(=O)N(C)C(C)(C)C)nn1-c1cc(Cl)cc(Cl)c1)CO2 [Compound 4, N-tert-butyl-1-(3,5-dichlorophenyl)-7-methoxy-N-methyl-8-(1-methyl-1H-pyrazol-3-yl)-1,4-dihydrochromeno[4,3-c]pyrazole-3-carboxamide] | 10 to 100 nM | > 500 nM
20 | COc1cc2c(cc1-c1cc(C(N)=O)ncc1F)-c1c(c(C(=O)N(C)C(C)(C)C)nn1-c1cc(F)cc(F)c1)CO2 [Compound 70, N-tert-butyl-8-(2-carbamoyl-5-fluoropyridin-4-yl)-1-(3,5-difluorophenyl)-7-methoxy-N-methyl-1,4-dihydrochromeno[4,3-c]pyrazole-3-carboxamide] | < 10 nM | 10 to 100 nM
